Assays:
[1] = tested on: ABCA1 protein expression in Neuro2A cells; assay: ABCA1 immunoblot of Neuro2A cells treated with retinoic acid and oxysterols; assay type: cell-based, mouse; conditions: for ABCA1 induction, densitometric analysis / increase of ABCA1 protein (immunoblot) compared with 22-hydroxycholesterol: 5 μM oxysterol with 5 μM retinoic acid; for increase of ABCA1 protein (immunoblot) compared with 22-hydroxycholesterol: one or two days
Method: (§1) Cell culture. Mouse Neuro2A (neuroblastoma) cells and human IMR-32 (neuroblastoma) cells (American Type Culture Collection, Manassas, Va.) were cultured in Optimem (Gibco, Invitrogen Life Technologies, Carlsbad, Calif.) supplemented with 10% fetal bovine serum. Mouse BV-2 (microglial) and rat C6 (glioma) cells were cultured in Dulbecco's modified Eagle's medium supplemented with 5% fetal bovine serum. Mouse primary neuronal cultures were generated as described (27). Briefly, cortical neurons were isolated from embryonic day 16 Swiss-Webster mice. Individual cortices was dissociated in calcium-free saline and plated on poly-D-lysine (Sigma) coated tissue culture dishes at the density of 1.5×10^6 cell/ml. The neurons were grown in Neurobasal Media (Gibco BRL) plus 10% fetal bovine serum. One hour after plating, medium with serum was replaced with medium containing B-27 supplement (Gibco BRL). Western blot. Cells were lysed in 250 mM sucrose, 10 mM HEPES (pH 7.4), supplemented with complete protease inhibitors (Sigma Chemical Co). Protein levels were quantified by the BCA assay (Pierce, Rockford, Ill.), and samples of 50 μg were held in SDS loading buffer with 2.5% β-mercaptoethanol for 30 min at room temperature, but were not boiled prior to loading. Proteins were separated by SDS-6% polyacrylamide gel electrophoresis and transferred to nitrocellulose. Blots were probed with the anti-ABC1 antibodies (1:1000), and developed with anti-rabbit linked HRP secondary antibody by chemiluminescence.

[2] = tested on: ABCA1 protein expression in mouse primary neurons; assay: ABCA1 immunoblot of mouse primary neurons treated with retinoic acid and 22-hydroxycholesterol; assay type: cell-based
Method: as §1, with “Blots were probed with the anti-ABC1 antibodies (1:1000), and developed with anti-rabbit linked HRP secondary antibody by chemiluminescence.” left out

[3] = tested on: ABCA1 protein expression in human neuroblastoma IMR-32 cells; assay: ABCA1 immunoblot of IMR-32 cells; assay type: cell-based; conditions: with retinoic acid
Method: as §1, with “Blots were probed with the anti-ABC1 antibodies (1:1000), and developed with anti-rabbit linked HRP secondary antibody by chemiluminescence.” left out

[4] = tested on: ABCA1 protein expression in BV-2 cells; assay: ABCA1 immunoblot of BV-2 microglial cells; assay type: cell-based, mouse
Method: as §1

[5] = tested on: ABCA1 protein expression in C6 cells; assay: ABCA1 immunoblot of C6 glioma cells; assay type: cell-based, rat
Method: as §1

[6] = tested on: secreted Aβ40 from Neuro2A cells; assay: Aβ40 ELISA of conditioned medium of Neuro2A cells; assay type: cell-based, mouse; conditions: for increase of secreted Aβ40 over vehicle-treated cells: with retinoic acid, one day, 22-hydroxycholesterol 10 uM
Method: (§2) Cell culture. Mouse Neuro2A (neuroblastoma) cells and human IMR-32 (neuroblastoma) cells (American Type Culture Collection, Manassas, Va.) were cultured in Optimem (Gibco, Invitrogen Life Technologies, Carlsbad, Calif.) supplemented with 10% fetal bovine serum. Mouse BV-2 (microglial) and rat C6 (glioma) cells were cultured in Dulbecco's modified Eagle's medium supplemented with 5% fetal bovine serum. Mouse primary neuronal cultures were generated as described (27). Briefly, cortical neurons were isolated from embryonic day 16 Swiss-Webster mice. Individual cortices was dissociated in calcium-free saline and plated on poly-D-lysine (Sigma) coated tissue culture dishes at the density of 1.5×10^6 cell/ml. The neurons were grown in Neurobasal Media (Gibco BRL) plus 10% fetal bovine serum. One hour after plating, medium with serum was replaced with medium containing B-27 supplement (Gibco BRL).
(§3) RNA inhibition. Double stranded RNA (RNAi) was generated homologous to a region of the 5′ end of the coding portion of the mouse ABCA1 gene, 5′-AAGTGGCCTGGCCTCTCTTTA-3′ (SEQ ID NO:2) (Dharmacon Research Inc, Lafayette, Colo.). As a negative control, we used a sequence directed against the human hsp70 gene. Neuro2A cells were transfected with the RNAi with Effectene transfection reagent (Qiagen, Valencia, Calif.) according to manufacturer protocol. After an overnight exposure, RNAi complex was removed, cells were washed one time in growth medium, and the media was replaced with Neurobasal medium with 2% B-27 with or without LXR/RXR agonists for one day. Conditioned media was collected and analyzed for Aβ.
(§4) Aβanalyses. Cells were cultured in Neurobasal medium with 2% B-27 for one day in the presence or absence of LXR/RXR agonists. Aβ40 and Aβ42 levels in the conditioned medium were determined by ELISA, with BNT77 as a capture antibody and BA23-HRP for Aβ40 or BC05-HRP for Aβ42 as detection antibodies (28). Aβ antibodies for ELISA were the generous gift of Takeda Chemical Industries.

[7] = tested on: secreted Aβ42 from Neuro2A cells; assay: Aβ42 ELISA of conditioned medium of Neuro2A cells; assay type: cell-based, mouse; conditions: for increase of secreted Aβ42 over vehicle-treated cells: with retinoic acid, one day, 22-hydroxycholesterol 10 uM
Method: as §2, §3, §4

LXRα or LXRβ isoforms = conditions: references 37, 38; cited from earlier work
[8] = 5 μM retinoic acid and 5 μM 22-hydroxycholesterol together
[9] = cells treated only with buffer or with the RNAi named
[10] = retinoic acid and 22-hydroxycholesterol vs vehicle (ethanol), absence of RNAi
[11] = 1 μM TO-901317 in the presence of 5 μM retinoic acid

In the case of `CC(C)CCC[C@@H](C)[C@H]1CC[C@H]2[C@@H]3C(=O)C=C4C[C@@H](O)CC[C@]4(C)[C@H]3CC[C@]12C` [7-ketocholesterol], the “ABCA1 induction, densitometric analysis” value [1] is reported as “only half that level” and the “increase of ABCA1 protein (immunoblot) compared with 22-hydroxycholesterol” value [1] is reported as “not as efficacious”.

With `CC(C)CC[C@@H](O)[C@@H](C)[C@H]1CC[C@H]2[C@@H]3CC=C4C[C@@H](O)CC[C@]4(C)[C@H]3CC[C@]12C` [22-hydroxycholesterol, 22(R)-hydroxycholesterol] the “ABCA1 expression with increasing concentration” value ([2]; 22-hydroxycholesterol together with retinoic acid, from 100 nM to 10 uM) was “further increased ABCA1 expression”, the “ABCA1 protein compared to untreated cells” value ([2]; one-day treatment, 100 nM 22-hydroxycholesterol together with 100 nM retinoic acid) was “up-regulation of ABCA1 protein” and the “ABCA1 induction, densitometric analysis” value [1] was “equivalent extent”. The “expression of ABCA1” value ([1]; 10 μM retinoic acid and 22-hydroxycholesterol together, untreated cells low or undetectable) was “clearly apparent”, the “up-regulation of ABCA1 in cells treated only with the one compound” value ([1]; compound alone, some experiments) was “weak up-regulation” and the ABCA1 levels [3] was “detectable ABCA1 levels only after induction”. The ABCA1 expression [4, 8] was “increased”, the ABCA1 expression [5, 8] was “increased” and the “secreted Aβ40 after 22-hydroxycholesterol/retinoic acid treatment, in words” value [6, 9] was “significantly increased”. For the same molecule, the “increase of Aβ40, control cells of the RNAi experiment” value [6, 10] was 29%, the “increase of secreted Aβ40 over vehicle-treated cells” value [6] was 29% and the “secreted Aβ42 after 22-hydroxycholesterol/retinoic acid treatment, in words” value [7, 9] was “significantly increased”. For the same molecule, the “increase of Aβ42, control cells of the RNAi experiment” value [7, 10] was 62% and the “increase of secreted Aβ42 over vehicle-treated cells” value [7] was 65%.

For `CC(C)[C@@H](O)CC[C@@H](C)[C@H]1CC[C@H]2[C@@H]3CC=C4C[C@@H](O)CC[C@]4(C)[C@H]3CC[C@]12C` [24S-hydroxycholesterol], the “ABCA1 expression through interactions with LXRα or LXRβ” value (LXRα or LXRβ isoforms) is listed as “induces ABCA1 expression”.

With `C[C@H](CCCC(C)(C)O)[C@H]1CC[C@H]2[C@@H]3CC=C4C[C@@H](O)CC[C@]4(C)[C@H]3CC[C@]12C` [25-hydroxycholesterol] the “ABCA1 induction, densitometric analysis” value [1] was “equivalent extent” and the “increase of ABCA1 protein (immunoblot) compared with 22-hydroxycholesterol” value [1] was “nearly as well as 22-hydroxycholesterol”.

For `O=S(=O)(c1ccccc1)N(CC(F)(F)F)c1ccc(C(O)(C(F)(F)F)C(F)(F)F)cc1` [TO-901317], the ABCA1 expression ([4]; 1 μM TO-901317 alone) was “increased”, the ABCA1 expression [4, 11] was “further increased” and the ABCA1 expression ([5]; 1 μM TO-901317 alone) was “increased”. The ABCA1 expression [5, 11] was “further increased”, the “increase of secreted Aβ40 over vehicle-treated cells” value [6] was 25% and the “increase of secreted Aβ42 over vehicle-treated cells” value [7] was 126%.

Reference: US20050095239A1, “Methods and compositions for treating Alzheimer's disease” (priority 2002, published 2005)
